ChEMBL document CHEMBL1201862, “PubChem BioAssay data set” (2004)
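Cultured in 96-well plates, cells were exposed to test compound for 48 hours across five concentrations. GI50 = concentration required for 50% inhibition of growth.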 The source made the active and inactive calls. Rule as the data show it: active = GI50 up to about 1.1 µM and inactive = higher.

Assays:
Experiment in all cases: NCI-60 cell line screen, 48 h
A549 = system: A549
BT-549 = system: BT-549
DU-145 = system: DU-145
EKVX = system: EKVX
IGROV-1 = system: IGROV-1
K562 = system: K562
LOX IMVI = system: LOX IMVI
Malme-3M = system: Malme-3M
NCI-H226 = system: NCI-H226
NCI-H460 = system: NCI-H460
NCI-H522 = system: NCI-H522
NCI/ADR-RES = system: NCI/ADR-RES
OVCAR-3 = system: OVCAR-3
OVCAR-4 = system: OVCAR-4
OVCAR-8 = system: OVCAR-8
RXF 393 = system: RXF 393
SK-MEL-28 = system: SK-MEL-28
SK-MEL-5 = system: SK-MEL-5
SW-620 = system: SW-620
UO-31 = system: UO-31

Measured: GI50

CC(C)(C)N1Cc2ccccc2/C(=C/Sc2ccccc2)C1=O
inactive: A549 16.2 µM | BT-549 6.53 µM | DU-145 16.9 µM | EKVX 16.8 µM | IGROV-1 10.1 µM | K562 5.85 µM | LOX IMVI 2.64 µM | Malme-3M 13.3 µM | NCI-H226 8.83 µM | NCI-H460 14.9 µM | NCI-H522 2.75 µM | NCI/ADR-RES 14.1 µM | OVCAR-3 12 µM | OVCAR-4 7.01 µM | OVCAR-8 8.11 µM | RXF 393 16.2 µM | SK-MEL-28 17.5 µM | SK-MEL-5 6.9 µM | SW-620 7.21 µM | UO-31 12.3 µM

Nc1nc(SCC(=O)c2ccccc2)nc2nc3c(c(-c4ccccc4)c12)CCCC3
inactive: A549 45.1 µM | BT-549 40.9 µM | DU-145 > 100 µM | EKVX 63.4 µM | IGROV-1 > 10 µM | K562 > 100 µM | LOX IMVI 24.8 µM | Malme-3M 52.4 µM | NCI-H226 18.1 µM | NCI-H460 32.9 µM | NCI-H522 31.2 µM | NCI/ADR-RES 25.6 µM | OVCAR-3 22.5 µM | OVCAR-4 23.4 µM | OVCAR-8 27.2 µM | RXF 393 17.7 µM | SK-MEL-28 21.9 µM | SK-MEL-5 49.1 µM | SW-620 > 10 µM | UO-31 12.4 µM

COC(NC(=O)Nc1ccc(C)cc1)(C(F)(F)F)C(F)(F)F
inactive: A549 34.8 µM | BT-549 22.9 µM | DU-145 35.6 µM | IGROV-1 26.5 µM | K562 8.39 µM | LOX IMVI 3.08 µM | Malme-3M 36.3 µM | NCI-H226 55.8 µM | NCI-H460 32 µM | NCI-H522 22 µM | NCI/ADR-RES 25.9 µM | OVCAR-3 42.8 µM | OVCAR-4 34.2 µM | OVCAR-8 25.2 µM | RXF 393 23.1 µM | SK-MEL-28 42.2 µM | SK-MEL-5 15.6 µM | SW-620 20.4 µM | UO-31 17.5 µM

N=C(CSS(=O)(=O)O)NC1CC2CCC1C2 (centres undefined)
inactive: A549 > 100 µM | BT-549 > 100 µM | DU-145 > 100 µM | IGROV-1 > 100 µM | K562 98.6 µM | LOX IMVI 46 µM | Malme-3M > 100 µM | NCI-H226 > 100 µM | NCI-H460 43.1 µM | NCI-H522 > 100 µM | NCI/ADR-RES > 100 µM | OVCAR-3 > 100 µM | OVCAR-4 > 100 µM | OVCAR-8 > 100 µM | RXF 393 > 100 µM | SK-MEL-28 > 100 µM | SK-MEL-5 > 100 µM | SW-620 > 100 µM

CCCCNc1c(CN)cnc2cc(Cl)ccc12
inactive: A549 20.5 µM | BT-549 16.6 µM | DU-145 28.1 µM | EKVX 3.79 µM | IGROV-1 14.7 µM | K562 13.9 µM | LOX IMVI 15.4 µM | Malme-3M 19.2 µM | NCI-H226 16.1 µM | NCI-H460 13 µM | NCI-H522 18.8 µM | NCI/ADR-RES 16.2 µM | OVCAR-3 15 µM | OVCAR-4 16.6 µM | OVCAR-8 18.2 µM | RXF 393 14.5 µM | SK-MEL-28 15.6 µM | SK-MEL-5 15.1 µM | SW-620 16.3 µM

Cc1nn(C(=O)c2ccc(Cl)cc2)c2c1C(c1ccccc1)SC(=N)N2 (centres undefined)
inactive: A549 > 10 µM | BT-549 > 10 µM | DU-145 > 10 µM | EKVX > 10 µM | IGROV-1 > 10 µM | K562 > 10 µM | LOX IMVI > 10 µM | Malme-3M > 10 µM | NCI-H226 > 10 µM | NCI-H460 > 10 µM | NCI-H522 > 10 µM | NCI/ADR-RES > 10 µM | OVCAR-3 > 10 µM | OVCAR-4 > 10 µM | OVCAR-8 > 10 µM | RXF 393 > 10 µM | SK-MEL-28 > 10 µM | SK-MEL-5 > 10 µM | SW-620 > 10 µM

Cc1sc2nc3n(c(=O)c2c1C)N=C(c1ccc([N+](=O)[O-])cc1)CS3
inactive: A549 > 100 µM | BT-549 56.5 µM | DU-145 > 100 µM | EKVX > 100 µM | K562 > 100 µM | LOX IMVI > 100 µM | Malme-3M > 100 µM | NCI-H226 > 100 µM | NCI-H460 > 100 µM | NCI-H522 > 100 µM | NCI/ADR-RES > 100 µM | OVCAR-3 > 100 µM | OVCAR-4 > 10 µM | OVCAR-8 > 100 µM | RXF 393 > 100 µM | SK-MEL-28 > 100 µM | SK-MEL-5 > 100 µM | SW-620 > 100 µM | UO-31 > 100 µM

CC#CC#C/C=C1/O[C@]2(CCC(OC(C)=O)CO2)[C@@H]2O[C@H]12 (some centres undefined)
inactive: A549 29.6 µM | BT-549 21.1 µM | DU-145 30.5 µM | EKVX 31.5 µM | IGROV-1 50.7 µM | K562 29.4 µM | LOX IMVI 15.1 µM | Malme-3M 14.7 µM | NCI-H226 20.4 µM | NCI-H460 18.1 µM | NCI-H522 15.3 µM | NCI/ADR-RES 21.7 µM | OVCAR-3 29.4 µM | OVCAR-4 27.9 µM | OVCAR-8 32.8 µM | RXF 393 18.5 µM | SW-620 25.7 µM | UO-31 20.1 µM

COC1CC(OC2OC(CO)C(O)C(O)C2O)/C(=C\C#N)C(O)C1OC (centres undefined)
inactive: A549 > 100 µM | BT-549 > 100 µM | DU-145 > 100 µM | EKVX > 100 µM | IGROV-1 > 100 µM | LOX IMVI > 100 µM | Malme-3M > 100 µM | NCI-H226 > 100 µM | NCI-H460 > 100 µM | NCI-H522 > 100 µM | NCI/ADR-RES > 100 µM | OVCAR-3 > 100 µM | OVCAR-4 > 100 µM | OVCAR-8 > 100 µM | RXF 393 > 100 µM | SK-MEL-28 > 100 µM | SK-MEL-5 > 100 µM | SW-620 > 100 µM | UO-31 > 100 µM

CC(=O)Nc1ccccc1SCCSSCCSc1ccccc1NC(C)=O
inactive: A549 25.7 µM | BT-549 51.9 µM | DU-145 25.6 µM | EKVX 43.3 µM | IGROV-1 20.3 µM | K562 28.6 µM | LOX IMVI 20 µM | Malme-3M 34.7 µM | NCI-H226 31.1 µM | NCI-H460 25.1 µM | NCI-H522 16.8 µM | NCI/ADR-RES 31.8 µM | OVCAR-3 28.8 µM | OVCAR-4 22.6 µM | OVCAR-8 38.9 µM | RXF 393 34.2 µM | SK-MEL-5 38.5 µM | SW-620 39.3 µM | UO-31 17.8 µM

Cc1cc(C)c(/N=N/c2c(O)c(S(=O)(=O)O)cc3cc(S(=O)(=O)O)ccc23)cc1C
inactive: A549 > 100 µM | BT-549 > 100 µM | DU-145 > 100 µM | EKVX > 100 µM | IGROV-1 > 100 µM | K562 > 100 µM | LOX IMVI > 100 µM | Malme-3M > 100 µM | NCI-H226 > 100 µM | NCI-H522 > 100 µM | NCI/ADR-RES > 100 µM | OVCAR-3 > 100 µM | OVCAR-4 > 100 µM | OVCAR-8 > 100 µM | RXF 393 > 100 µM | SK-MEL-28 > 100 µM | SK-MEL-5 > 100 µM | SW-620 > 100 µM | UO-31 > 100 µM

CC1=C(O)C(O)=C(C2=C(O)C(O)=C(C)C(=O)C2=O)C(=O)C1=O
inactive: BT-549 31 µM | DU-145 31.3 µM | EKVX > 100 µM | IGROV-1 43.4 µM | K562 45.7 µM | LOX IMVI 30.6 µM | Malme-3M 20.8 µM | NCI-H226 35.2 µM | NCI-H460 40.6 µM | NCI-H522 29.3 µM | NCI/ADR-RES 36 µM | OVCAR-3 30.8 µM | OVCAR-4 24.6 µM | OVCAR-8 47.4 µM | RXF 393 26.7 µM | SK-MEL-28 29.2 µM | SK-MEL-5 27.2 µM | SW-620 68.9 µM | UO-31 39.1 µM

CC1=Nc2ccccc2OC(C)=C1/N=N/c1ccc2[nH]c(C)nc2c1
inactive: A549 > 100 µM | BT-549 > 100 µM | DU-145 > 100 µM | EKVX > 100 µM | IGROV-1 33.5 µM | K562 > 100 µM | LOX IMVI 66.2 µM | Malme-3M > 100 µM | NCI-H226 > 100 µM | NCI-H460 55.2 µM | NCI-H522 > 100 µM | NCI/ADR-RES > 100 µM | OVCAR-3 > 100 µM | OVCAR-4 > 100 µM | OVCAR-8 > 100 µM | RXF 393 56.1 µM | SK-MEL-28 > 100 µM | SW-620 > 100 µM

NC1=CN2c3ccccc3N(CC(=O)N3CCOCC3)C2C=C1 (centres undefined)
inactive: A549 > 100 µM | BT-549 > 100 µM | DU-145 > 100 µM | EKVX > 100 µM | IGROV-1 > 100 µM | K562 > 100 µM | LOX IMVI > 100 µM | Malme-3M > 100 µM | NCI-H226 > 100 µM | NCI-H460 > 100 µM | NCI-H522 > 100 µM | NCI/ADR-RES > 100 µM | OVCAR-4 > 100 µM | OVCAR-8 > 100 µM | RXF 393 > 100 µM | SK-MEL-28 > 100 µM | SK-MEL-5 > 100 µM | SW-620 > 100 µM | UO-31 > 100 µM

CC1(C)OCC(C2OC(On3nnc4ccc(Cl)cc43)C3OC(C)(C)OC23)O1 (centres undefined)
inactive: A549 > 100 µM | BT-549 > 100 µM | DU-145 > 100 µM | EKVX > 100 µM | IGROV-1 > 100 µM | K562 22.4 µM | LOX IMVI > 100 µM | Malme-3M > 100 µM | NCI-H226 66.1 µM | NCI-H460 > 100 µM | NCI-H522 > 100 µM | NCI/ADR-RES > 100 µM | OVCAR-3 > 100 µM | OVCAR-4 > 100 µM | OVCAR-8 > 100 µM | RXF 393 > 100 µM | SK-MEL-28 > 100 µM | SK-MEL-5 > 100 µM | SW-620 > 100 µM
